In publication PMC8551311, “Energy transfer between the nicotinamide nucleotide transhydrogenase and ATP synthase of Escherichia coli” (Scientific Reports, 2021):

Columns and labels:
[1] = target: T1, E. coli F1F0 ATP synthase (Escherichia coli, UniProt P0ABB0+P0ABB4); assay: ATP synthesis in proteoliposomes, luciferin/luciferase luminescence; assay type: biochemical; set-up: gene atpA; with ATP synthase gamma chain; ATP synthase subunit delta; ATP synthase epsilon chain; ATP synthase subunit a; ATP synthase subunit b; ATP synthase subunit c; settings: 250 μM ADP, 40 mM KH2PO4, 5 mM MgCl2, 1.5 mM NAD+, 750 μM NADPH; 50 mM HEPES pH 7.5, 100 mM KCl; co-reconstituted with transhydrogenase
[2] = target: T1, E. coli F1F0 ATP synthase; set-up: gene atpA; settings: 250 μM ATP, 2-4 mM MgCl2; 50 mM HEPES pH 7.5, 100 mM KCl; co-reconstituted with transhydrogenase

Structure (SMILES)	ATP synthesis in proteoliposomes, luciferin/luciferase luminescence [1]	ATP-driven proton pumping in proteoliposomes (ACMA quench); APADH absorbance 375 [2]
Nc1ncnc2c1ncn2[C@@H]1O[C@H](COP(=O)(O)OP(=O)(O)O)[C@@H](O)[C@H]1O [ADP]	upon addition of NADPH, continuous ATP synthesis is observed	–
Nc1ncnc2c1ncn2[C@@H]1O[C@H](COP(=O)(O)OP(=O)(O)OP(=O)(O)O)[C@@H](O)[C@H]1O [ATP]	–	addition of ATP energized inward proton pumping by ATP synthase
